From ChEMBL document CHEMBL1144471, “Structure-activity relationships of 2,N(6),5'-substituted adenosine derivatives with potent activity at the A2B adenosine receptor” (J Med Chem, 2007) come the findings set out here.

As usually defined, the Ki is the equilibrium dissociation constant of an inhibitor or competing ligand from its target. Low readings indicate a stronger hold on the target, high ones a looser hold on the target. As a reminder, the EC50 is the concentration that produces a half-maximal response.

For one assay, the target named is T1, Adenosine receptor A3 (Homo sapiens, UniProt P0DMS8).
T1 sequence (P0DMS8 whole entry): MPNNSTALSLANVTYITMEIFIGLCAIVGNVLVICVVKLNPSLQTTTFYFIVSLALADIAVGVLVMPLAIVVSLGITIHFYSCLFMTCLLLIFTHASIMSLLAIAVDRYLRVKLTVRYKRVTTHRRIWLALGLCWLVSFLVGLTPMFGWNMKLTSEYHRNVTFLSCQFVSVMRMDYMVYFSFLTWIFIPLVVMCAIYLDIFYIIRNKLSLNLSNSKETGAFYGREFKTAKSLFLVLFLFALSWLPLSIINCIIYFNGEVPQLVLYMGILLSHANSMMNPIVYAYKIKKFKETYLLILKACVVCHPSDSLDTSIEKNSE
The assay is described as follows: Displacement of [125I]I-AB-MECA from human adenosine A3 receptor expressed in CHO cells. Type of assay: cell-based. In general terms: In a radioligand displacement assay an active substance lowers the binding of a labelled ligand.

For assay [1], the target named is T2, Adenosine receptor A2b (Homo sapiens) (UniProt P29275).
T2 sequence (whole entry): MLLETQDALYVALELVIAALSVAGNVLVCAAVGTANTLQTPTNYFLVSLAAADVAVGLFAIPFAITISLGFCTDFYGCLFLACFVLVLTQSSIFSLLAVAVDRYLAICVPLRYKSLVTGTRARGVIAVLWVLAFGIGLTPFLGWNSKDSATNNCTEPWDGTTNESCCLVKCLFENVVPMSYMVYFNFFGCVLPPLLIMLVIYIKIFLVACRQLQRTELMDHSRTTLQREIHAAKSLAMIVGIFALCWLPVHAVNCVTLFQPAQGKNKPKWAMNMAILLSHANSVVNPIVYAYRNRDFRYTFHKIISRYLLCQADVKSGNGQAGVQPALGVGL
The assay is described as follows: Agonist activity at human adenosine A2B receptor expressed in CHO cells assessed as stimulation of cAMP production at 10 uM. The class given is functional, cell-based.

The next assay addresses T3, Adenosine receptor A1 (Homo sapiens, UniProt P30542).
T3 sequence (P30542 whole entry): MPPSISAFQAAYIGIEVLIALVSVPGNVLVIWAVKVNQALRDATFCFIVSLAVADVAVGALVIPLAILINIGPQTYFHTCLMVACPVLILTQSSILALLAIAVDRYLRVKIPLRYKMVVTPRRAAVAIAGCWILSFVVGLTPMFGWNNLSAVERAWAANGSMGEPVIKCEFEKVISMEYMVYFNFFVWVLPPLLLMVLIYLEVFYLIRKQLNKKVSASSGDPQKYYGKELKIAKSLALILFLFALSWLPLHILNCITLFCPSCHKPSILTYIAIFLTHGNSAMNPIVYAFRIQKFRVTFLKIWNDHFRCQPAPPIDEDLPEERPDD
The assay is described as follows: Displacement of […] from human adenosine A1 receptor expressed in CHO cells. Type of assay: cell-based.

A further assay has as its target Adenosine receptor A2a (Homo sapiens, UniProt P29274). Put plainly: biochemical.
Assay [2] has as its target T4, Adenosine receptor A3 (Homo sapiens) (UniProt P0DMS8).
T4 sequence (whole entry): T1 sequence (P0DMS8 whole entry)
The assay is described as follows: Maximum efficacy at human recombinant adenosine A3 receptor expressed in CHO cells assessed as inhibition of cAMP production at 10 uM relative to NECA. The class given is functional, cell-based. Background: Cyclic AMP is a second messenger, typically raised through Gs and lowered through Gi signalling.

The target of another assay is T5, Adenosine receptor A2b (Homo sapiens, UniProt P29275).
T5 sequence (P29275 whole entry): T2 sequence (whole entry)
The assay is described as follows: Agonist activity at human adenosine A2B receptor expressed in CHO cells assessed as stimulation of cAMP production.

Sequence of Adenosine receptor A2a (P29274 whole entry): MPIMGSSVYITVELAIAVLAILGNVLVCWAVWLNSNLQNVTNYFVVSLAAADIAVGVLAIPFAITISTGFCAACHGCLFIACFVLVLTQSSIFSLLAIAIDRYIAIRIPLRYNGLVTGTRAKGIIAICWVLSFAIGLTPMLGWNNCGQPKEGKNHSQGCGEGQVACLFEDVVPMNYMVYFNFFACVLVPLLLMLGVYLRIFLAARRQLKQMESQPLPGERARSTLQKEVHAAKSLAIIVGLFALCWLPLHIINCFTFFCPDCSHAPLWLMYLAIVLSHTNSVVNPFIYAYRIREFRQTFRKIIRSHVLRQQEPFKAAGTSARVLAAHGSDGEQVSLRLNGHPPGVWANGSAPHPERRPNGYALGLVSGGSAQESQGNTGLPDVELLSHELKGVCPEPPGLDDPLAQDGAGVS
Description for Adenosine receptor A2a: Displacement of [3H]CGS-21680 from human adenosine A2A receptor expressed in CHO cells

`Nc1nc(OCCc2ccccc2F)nc2c1ncn2[C@@H]1O[C@H](CO)[C@@H](O)[C@H]1O`: the figures for the inhibition constant (Ki) at Adenosine receptor A3, at Adenosine receptor A1 and at Adenosine receptor A2a were 0.0778 µM, 0.331 µM and 0.0581 µM, respectively. In addition, in assay [1], the Activity was determined as 12%. For the same molecule, the Efficacy in assay [2] turned out to be 45%.
For the molecule `Nc1nc(OCCc2ccc(F)cc2)nc2c1ncn2[C@@H]1O[C@H](CO)[C@@H](O)[C@H]1O`, the inhibition constant Ki was found to be 0.112 µM on Adenosine receptor A3, 0.467 µM at Adenosine receptor A1 and 0.0568 µM at Adenosine receptor A2a. In addition, the Activity in assay [1] amounted to 11%. Moreover, the Efficacy in assay [2] is 74%.
Take `Nc1nc(OCCc2ccccc2)nc2c1ncn2[C@@H]1O[C@H](CO)[C@@H](O)[C@H]1O`: the Ki at Adenosine receptor A3 stood at 0.0542 µM; on Adenosine receptor A1, 0.221 µM; on Adenosine receptor A2a it was 0.0093 µM. For the same molecule, at Adenosine receptor A2b, the half-maximal effective concentration (EC50) amounted to 3.49 µM. Further, the Efficacy in assay [2] amounted to 71%.
With `COc1ccc2[nH]cc(CCOc3nc(N)c4ncn([C@@H]5O[C@H](CO)[C@@H](O)[C@H]5O)c4n3)c2c1`, the inhibition constant Ki at Adenosine receptor A3 is 0.36 µM; on Adenosine receptor A1 it was 1.82 µM; on Adenosine receptor A2a, 1.4 µM. For the same molecule, the EC50 at Adenosine receptor A2b amounted to 1.25 µM. The Efficacy in assay [2] is -3%.
For the molecule `Nc1nc(OCCc2cccs2)nc2c1ncn2[C@@H]1O[C@H](CO)[C@@H](O)[C@H]1O`, the inhibition constant (Ki) turned out to be 0.0933 µM at Adenosine receptor A3, 0.174 µM on Adenosine receptor A1 and 0.0109 µM at Adenosine receptor A2a. For the same molecule, the concentration giving a half-maximal response (EC50) on Adenosine receptor A2b amounted to 1.78 µM. Further, the Efficacy in assay [2] came out at 80%.
As for `C[C@@H](CCOc1nc(N)c2ncn([C@@H]3O[C@H](CO)[C@@H](O)[C@H]3O)c2n1)c1ccccc1`, the results for the Ki on Adenosine receptor A3, at Adenosine receptor A1 and on Adenosine receptor A2a were 0.312 µM, 1.56 µM and 0.413 µM, respectively. In addition, in assay [1], the Activity was determined as 13%. In addition, the Efficacy in assay [2] was determined as 18%.
As to `Nc1nc(OCCc2cc3ccccc3[nH]2)nc2c1ncn2[C@@H]1O[C@H](CO)[C@@H](O)[C@H]1O`, the Ki came to 0.513 µM at Adenosine receptor A3, 0.197 µM on Adenosine receptor A1 and 0.373 µM at Adenosine receptor A2a. Besides, the Activity in assay [1] worked out at 49%. For the same molecule, the Efficacy in assay [2] is 37%.
For the molecule `Nc1nc(OCCc2c[nH]c3ccc(Br)cc23)nc2c1ncn2[C@@H]1O[C@H](CO)[C@@H](O)[C@H]1O`, the figures for the inhibition constant (Ki) on Adenosine receptor A3, at Adenosine receptor A1 and on Adenosine receptor A2a were 0.234 µM, 0.358 µM and 0.502 µM, respectively. Besides, the EC50 at Adenosine receptor A2b is 0.365 µM. In assay [2], the Efficacy amounted to 1%.
The like results for `Nc1nc(OCCc2cc[nH]c2)nc2c1ncn2[C@@H]1O[C@H](CO)[C@@H](O)[C@H]1O` were, in that order, 0.104 µM, 0.218 µM, 0.095 µM, 2.58 µM and 75%.
As to `Nc1nc(OCCc2ccsc2)nc2c1ncn2[C@@H]1O[C@H](CO)[C@@H](O)[C@H]1O`, the Ki on Adenosine receptor A3 stood at 0.101 µM; at Adenosine receptor A1 it was 0.28 µM; at Adenosine receptor A2a it was 0.0133 µM. Moreover, in assay [1], the Activity was 9%. For the same molecule, the Efficacy in assay [2] is 62%.
The like results for `Nc1nc(OCCCCc2ccccc2)nc2c1ncn2[C@@H]1O[C@H](CO)[C@@H](O)[C@H]1O` were, in that order, 0.352 µM, 2.06 µM, 0.519 µM, 3% and 37%.
As for `Nc1nc(OCCc2c[nH]c3cccc(Br)c23)nc2c1ncn2[C@@H]1O[C@H](CO)[C@@H](O)[C@H]1O`, the figures for the Ki at Adenosine receptor A3, at Adenosine receptor A1 and on Adenosine receptor A2a were 0.26 µM, 0.443 µM and 0.0397 µM, respectively. Moreover, the Activity in assay [1] was 16%. For the same molecule, in assay [2], the Efficacy is -5%.
Regarding `Nc1nc(OCCc2c[nH]c3cc(Cl)ccc23)nc2c1ncn2[C@@H]1O[C@H](CO)[C@@H](O)[C@H]1O`, the EC50 at Adenosine receptor A2b turned out to be 0.216 µM. On Adenosine receptor A2a, this molecule returned an inhibition constant (Ki) of 0.0293 µM. The Efficacy in assay [2] was found to be 2%.
Regarding `Nc1nc(OCCc2c[nH]c3ccc(I)cc23)nc2c1ncn2[C@@H]1O[C@H](CO)[C@@H](O)[C@H]1O`, the Ki on Adenosine receptor A3 came to 0.11 µM; at Adenosine receptor A1, 0.35 µM; at Adenosine receptor A2a, 0.9 µM. On Adenosine receptor A2b, the EC50 worked out at 1.87 µM. In addition, the Efficacy in assay [2] was -5%.
`CCNC(=O)[C@H]1O[C@@H](n2cnc3c(NC(=N)N)ncnc32)[C@H](O)[C@@H]1O`: the Efficacy in assay [2] was 100%.
Consider `CCOc1nc(N)c2ncn([C@@H]3O[C@H](CO)[C@@H](O)[C@H]3O)c2n1`, for which the values for the inhibition constant (Ki) on Adenosine receptor A3, on Adenosine receptor A1 and at Adenosine receptor A2a were 0.568 µM, 2.64 µM and 0.36 µM, respectively. Further, the Activity in assay [1] is -1%. In assay [2], the Efficacy worked out at 99%.
On to `CCNC(=O)[C@H]1O[C@@H](n2cnc3c(N)nc(OCCc4c[nH]c5ccccc45)nc32)[C@H](O)[C@@H]1O`, for which the inhibition constant Ki on Adenosine receptor A3 was 0.11 µM; on Adenosine receptor A1 it was 0.19 µM; at Adenosine receptor A2a, 0.25 µM. Moreover, the EC50 at Adenosine receptor A2b worked out at 0.989 µM. In assay [2], the Efficacy was found to be 102%.
`Nc1nc(OCCc2c[nH]c3ccc(F)cc23)nc2c1ncn2[C@@H]1O[C@H](CO)[C@@H](O)[C@H]1O`: the inhibition constant (Ki) worked out at 0.49 µM at Adenosine receptor A3, 0.15 µM on Adenosine receptor A1 and 0.37 µM at Adenosine receptor A2a. Besides, the EC50 on Adenosine receptor A2b is 0.767 µM. Also, the Efficacy in assay [2] was -1%.
Turning to `Nc1nc(OCCc2cccc(F)c2)nc2c1ncn2[C@@H]1O[C@H](CO)[C@@H](O)[C@H]1O`, the inhibition constant Ki at Adenosine receptor A3 amounted to 0.119 µM; at Adenosine receptor A1, 0.312 µM; on Adenosine receptor A2a, 0.0693 µM. Besides, the Activity in assay [1] was found to be 64%. In assay [2], the Efficacy was determined as 50%.
`Nc1nc(OCCc2c[nH]c3ccc(O)cc23)nc2c1ncn2[C@@H]1O[C@H](CO)[C@@H](O)[C@H]1O`: the values for the inhibitory constant (Ki) on Adenosine receptor A3, at Adenosine receptor A1 and on Adenosine receptor A2a were 0.12 µM, 0.31 µM and 0.45 µM, respectively. The EC50 at Adenosine receptor A2b stood at 0.896 µM. Further, in assay [2], the Efficacy came to 24%.
`Nc1nc(OCCCc2ccccc2)nc2c1ncn2[C@@H]1O[C@H](CO)[C@@H](O)[C@H]1O`: the Ki was determined as 0.066 µM on Adenosine receptor A3, 0.96 µM on Adenosine receptor A1 and 0.5 µM at Adenosine receptor A2a. Moreover, the Activity in assay [1] turned out to be 29%. In addition, in assay [2], the Efficacy stood at 42%.
With `Nc1nc(OCCc2c[nH]c3ccccc23)nc2c1ncn2[C@@H]1O[C@H](CO)[C@@H](O)[C@H]1O`, the results for the Ki on Adenosine receptor A3, on Adenosine receptor A1 and on Adenosine receptor A2a were 0.232 µM, 0.148 µM and 0.045 µM, respectively. Besides, the EC50 on Adenosine receptor A2b was 0.299 µM. The Efficacy in assay [2] turned out to be 17%.
On to `Nc1nc(OCCc2ccc3ccccc3c2)nc2c1ncn2[C@@H]1O[C@H](CO)[C@@H](O)[C@H]1O`, for which the inhibition constant (Ki) worked out at 0.13 µM at Adenosine receptor A3, 0.141 µM at Adenosine receptor A1 and 0.0161 µM on Adenosine receptor A2a. For the same molecule, on Adenosine receptor A2b, the EC50 came to 1.44 µM. Further, in assay [2], the Efficacy amounted to 45%.
Regarding `N=C(N)Nc1nc(OCCc2c[nH]c3ccccc23)nc2c1ncn2[C@@H]1O[C@H](CO)[C@@H](O)[C@H]1O`, the Ki was 0.09 µM at Adenosine receptor A3, 0.0736 µM on Adenosine receptor A1 and 0.277 µM at Adenosine receptor A2a. Also, the Activity in assay [1] stood at 40%. For the same molecule, the Efficacy in assay [2] was found to be 58%.
As to `Nc1nc(OCCc2c[nH]c3ccc(Cl)cc23)nc2c1ncn2[C@@H]1O[C@H](CO)[C@@H](O)[C@H]1O`, the Ki was determined as 0.296 µM at Adenosine receptor A3, 0.13 µM at Adenosine receptor A1 and 0.39 µM at Adenosine receptor A2a. On Adenosine receptor A2b, the EC50 stood at 2.18 µM. Moreover, in assay [2], the Efficacy was -4%.
As to `Nc1nc(OCCc2c[nH]c3c(Br)cccc23)nc2c1ncn2[C@@H]1O[C@H](CO)[C@@H](O)[C@H]1O`, the Ki at Adenosine receptor A3 turned out to be 0.142 µM; at Adenosine receptor A1 it was 0.21 µM; on Adenosine receptor A2a it was 0.252 µM. Further, in assay [1], the Activity was 43%. The Efficacy in assay [2] was -8%.
